Measured values published in patent publication US8663703B2, “Drug microparticles, processes of preparing them and a drug delivery vehicle comprising them” (Teva Pharmaceutical Industries, Ltd., priority 2002, dated 2014).

Test: Solubility of selected drugs in menthol melt
Assay type: physicochemical
Description: The following general procedure was repeated with several drugs with menthol carrier.
Menthol (10 grams) was melted on a stirring hot plate with magnetic stirring, then heated to the desired temperature indicated in Table 1. The desired drug was added in small increments (0.1 grams) and stirred to obtain a clear solution. The desired drug was added in increments until no more drug dissolved in the menthol.

## CCC(C)n1ncn(-c2ccc(N3CCN(c4ccc(OCC5COC(Cn6cncn6)(c6ccc(Cl)cc6Cl)O5)cc4)CC3)cc2)c1=O (stereo not shown) [Itraconazole]
In menthol at 60° C. (text of Example 6)
  Solubility in menthol: 1%
Menthol melt, 61 °C
  Solubility in menthol: 1.0 % w/w

## O=C(O)c1ccccc1O [Salicylic acid]
Menthol melt, 43 °C
  Solubility in menthol: 16.0 % w/w

## CC[C@H]1OC(=O)[C@H](C)[C@@H](O[C@H]2C[C@@](C)(OC)[C@@H](O)[C@H](C)O2)[C@H](C)[C@@H](O[C@@H]2O[C@H](C)C[C@H](N(C)C)[C@H]2O)[C@](C)(O)C[C@@H](C)CN(C)[C@H](C)[C@@H](O)[C@]1(C)O [Azithromycin]
Menthol melt, 63 °C
  Solubility in menthol: 40.0 % w/w
